Data published in ChEMBL document CHEMBL1201862, “PubChem BioAssay data set” (2004).
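Interpolation was linear, between the two tested concentrations surrounding the appropriate level; five concentrations were tested over 48 hours in 96-well plates. The concentration for 50% growth inhibition is given as GI50.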 The source made the active and inactive calls. Rule as the data show it: active = GI50 up to about 1.1 µM and inactive = higher.

What was measured:
Experiment in all cases: growth of human tumour cells (NCI), 48 h
[1] = tested on: RXF 393
[2] = tested on: U-251
[3] = tested on: SF-295
[4] = tested on: MOLT-4
[5] = tested on: LOX IMVI
[6] = tested on: EKVX
[7] = tested on: IGROV-1
[8] = tested on: UACC-257
[9] = tested on: OVCAR-8
[10] = tested on: 786-0
[11] = tested on: SK-MEL-28
[12] = tested on: HOP-62
[13] = tested on: KM12
[14] = tested on: A498
[15] = tested on: NCI-H522

Measured: GI50

COc1ccc(C2=C(Cl)c3cc(OC)c(OC)cc3C2Cl)cc1OC (stereo not drawn)
inactive: [1] 14.2 µM | [2] 15.4 µM | [3] 18.3 µM | [4] 3.82 µM | [5] 14.9 µM | [6] 22.2 µM | [7] 20.9 µM | [8] 17.8 µM | [9] 15.4 µM | [10] 19.1 µM | [11] 17 µM | [12] 16.5 µM

CC(=O)N1c2ccccc2C2=CC3C4C(=O)N(c5ccccc5)C(=O)C4C21C1C(=O)N(c2ccccc2)C(=O)C31 (stereo not drawn)
inactive: [2] 13.9 µM | [3] 7.06 µM | [4] 30.8 µM | [5] 43.9 µM | [13] 35.6 µM | [7] 75.7 µM | [8] 13.8 µM | [9] 23.1 µM | [10] 37.2 µM | [14] 74.5 µM | [11] > 100 µM

COc1cc(CNc2nc3ccc(C(F)(F)F)cc3nc2-c2ccccc2)cc(OC)c1OC
inactive: [2] 44.5 µM | [3] 34.7 µM | [4] 4.4 µM | [5] 32.1 µM | [6] 11.9 µM | [13] 24.6 µM | [7] 67.3 µM | [8] 34.9 µM | [9] 47.5 µM | [10] 28.3 µM | [15] 11.5 µM | [14] 38.2 µM | [11] 55.3 µM | [12] 76.6 µM

NC(=O)CN(CC(N)=O)C(N)=O
inactive: [1] > 100 µM | [2] > 100 µM | [3] > 100 µM | [4] > 100 µM | [5] > 100 µM | [6] > 100 µM | [13] > 100 µM | [7] > 100 µM | [8] > 100 µM | [9] > 100 µM | [10] > 100 µM | [15] > 100 µM | [14] > 100 µM | [11] > 100 µM

COc1cc(Br)c(C2OCCCO2)cc1OCc1ccccc1
inactive: [1] 64 µM | [2] > 100 µM | [3] > 100 µM | [4] 41.6 µM | [5] 78.3 µM | [6] > 100 µM | [13] > 100 µM | [7] > 100 µM | [9] > 100 µM | [10] > 100 µM | [15] 66.1 µM | [14] > 100 µM | [11] 60.3 µM | [12] > 100 µM

O=C(c1ccco1)N(C(=S)N1CCN(c2ccccn2)CC1)C1CCCCC1
inactive: [1] > 100 µM | [2] > 100 µM | [3] > 100 µM | [4] 83.4 µM | [5] > 100 µM | [13] > 100 µM | [7] > 100 µM | [8] > 100 µM | [9] > 100 µM | [10] > 100 µM | [15] > 100 µM | [11] > 100 µM | [12] > 100 µM

O=S(=O)(/C=C/CS(=O)(=O)c1ccccc1)c1ccccc1
inactive: [1] 26.9 µM | [2] 25.8 µM | [3] 27.9 µM | [4] 21.2 µM | [5] 17.3 µM | [6] 41.6 µM | [13] 13.8 µM | [7] 39.8 µM | [8] 24.2 µM | [9] 16.9 µM | [10] 24.3 µM | [14] 27.5 µM | [11] 31.8 µM | [12] 24.9 µM

O=C1c2ccncc2C(=O)c2c(O)ccc(O)c21
inactive: [1] 4.35 µM | [2] 16 µM | [3] 12.6 µM | [4] 5.89 µM | [5] 4.25 µM | [6] 18 µM | [13] 6.07 µM | [7] 12.5 µM | [9] 9.64 µM | [10] 6.38 µM | [14] 19 µM | [11] 11.9 µM | [12] 32.2 µM

C1CSCCSCCCS[C@@H]2CCCCC2SC1 (stereo partly drawn)
inactive: [1] > 100 µM | [2] > 100 µM | [3] > 100 µM | [5] 24.2 µM | [6] > 100 µM | [13] > 100 µM | [7] > 100 µM | [8] > 100 µM | [9] > 100 µM | [10] > 100 µM | [15] 25.9 µM | [14] > 100 µM | [11] > 100 µM | [12] > 100 µM

O=C(NCCCN1CCN(CCCNC(=O)c2cnc3ccccc3n2)CC1)c1cnc2ccccc2n1
inactive: [1] > 100 µM | [2] > 100 µM | [3] > 100 µM | [4] 44.8 µM | [5] 76.6 µM | [6] > 100 µM | [13] > 100 µM | [7] > 100 µM | [8] > 100 µM | [9] > 100 µM | [10] > 100 µM | [15] 90.8 µM | [14] 82 µM | [11] > 100 µM | [12] > 100 µM

COc1ccc(C(C#N)NNc2nc(C)cc(O)n2)cc1OC (stereo not drawn)
inactive: [1] > 100 µM | [2] > 100 µM | [3] > 100 µM | [4] > 100 µM | [5] > 100 µM | [13] > 100 µM | [7] > 100 µM | [8] > 100 µM | [9] > 100 µM | [10] > 100 µM | [15] > 100 µM | [11] > 100 µM | [12] > 100 µM

O=C1O[C@@H](c2ccccc2)C[C@@H]1CN1CCOCC1
inactive: [1] > 100 µM | [2] > 100 µM | [3] > 100 µM | [4] > 100 µM | [5] > 100 µM | [6] > 100 µM | [13] > 100 µM | [7] > 100 µM | [8] > 100 µM | [9] > 100 µM | [10] > 100 µM | [15] > 100 µM | [14] > 100 µM | [11] > 100 µM | [12] > 100 µM

COc1cc(NS(C)(=O)=O)ccc1NCc1c2ccccc2nc2ccccc12
inactive: [1] 13.9 µM | [2] 76.6 µM | [3] 64 µM | [4] 3.27 µM | [5] 23.2 µM | [6] 42.6 µM | [13] 7.66 µM | [7] 29.4 µM | [8] 32.9 µM | [9] 30.9 µM | [10] 40.6 µM | [15] 24.3 µM | [11] 49.7 µM

O=C1N/C(=C\[N+](=O)[O-])c2ccccc21
inactive: [1] > 100 µM | [2] > 100 µM | [3] > 100 µM | [4] > 100 µM | [5] > 100 µM | [6] > 100 µM | [13] > 100 µM | [7] > 100 µM | [8] > 100 µM | [9] > 100 µM | [10] > 100 µM | [15] > 100 µM | [14] > 100 µM | [11] > 100 µM | [12] > 100 µM

O=[N+]([O-])CCc1cccc([N+](=O)[O-])c1
inactive: [1] > 100 µM | [2] > 100 µM | [3] > 100 µM | [4] > 100 µM | [5] > 100 µM | [6] > 100 µM | [13] > 100 µM | [7] > 100 µM | [8] > 100 µM | [9] > 100 µM | [10] > 100 µM | [15] > 100 µM | [14] > 100 µM | [11] > 100 µM | [12] > 100 µM

CCCN(CCCCC(NC(C)=O)C(=O)NCc1ccccc1)C(=O)NCCCl (stereo not drawn)
inactive: [1] > 100 µM | [2] > 100 µM | [3] > 100 µM | [4] > 100 µM | [6] > 100 µM | [13] > 100 µM | [8] > 100 µM | [9] > 100 µM | [10] > 100 µM | [15] > 100 µM | [11] > 100 µM | [12] > 100 µM

COc1cc2cc3c4c(cc(OC)c(OC)c4c2cc1OC)CCN3C(=O)CCC(=O)NCCCN(C)C
inactive: [1] > 100 µM | [2] 41.9 µM | [3] 37 µM | [4] 58.9 µM | [5] 14.3 µM | [6] 72.1 µM | [13] 67.1 µM | [7] > 100 µM | [8] > 100 µM | [9] > 100 µM | [10] 78 µM | [15] 21.8 µM | [11] 38.4 µM | [12] 50.7 µM

C#CCNC(=O)NC(CCCNC(=O)OCc1ccccc1)C(=O)OCc1ccccc1 (stereo not drawn)
inactive: [1] 30.1 µM | [2] > 100 µM | [3] > 100 µM | [4] > 100 µM | [5] 95.1 µM | [6] > 100 µM | [13] > 100 µM | [7] > 100 µM | [8] 27.9 µM | [9] > 100 µM | [10] > 100 µM | [15] 25.9 µM | [14] > 100 µM | [11] > 100 µM | [12] > 100 µM

CC(=O)O[C@H]1CCC2[C@@H]3CCC4Nc5c(cnn5-c5ccccc5)C[C@]4(C)C3CC[C@@]21C (stereo partly drawn)
inactive: [1] 5.65 µM | [2] 17.9 µM | [3] 2.97 µM | [4] 6.93 µM | [5] 12.8 µM | [6] 3.3 µM | [13] 17.7 µM | [7] 20.7 µM | [8] 11.5 µM | [9] 18.2 µM | [10] 8.49 µM | [15] 14.7 µM | [14] 30.5 µM | [12] 18.3 µM

CCc1ccccc1-n1c2nc(=O)n(C)c(=O)c-2nc2ccccc21
inactive: [1] 13.7 µM | [2] 16 µM | [3] 11.5 µM | [4] 13.2 µM | [6] 12.1 µM | [13] 10.8 µM | [7] 17.5 µM | [8] 5.11 µM | [9] 5.96 µM | [10] 7.21 µM | [15] 13.6 µM | [14] 15.9 µM | [12] 29.6 µM
